Marks after values point to notes of the source that are not given here.
Columns and labels:
[1] = Summary of the method: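 Female SPF Balb/c nude mice bearing subcutaneous HCT-116 xenografts (3×10^6 cells, right hind limb), grouped at 60–150 mm^3, 6 per group; vehicle ethanol/Cremophor EL/saline 5:5:90. Body weight thrice weekly; tumours excised and weighed at sacrifice; Mean±SEM, unpaired t-test, P<0.05.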
[2] = tested on: HCT-116 colon cancer xenografts; test: Tumor growth inhibition of HCT-116 colon cancer xenografts in tumor-bearing nude mice (tumor volume, TGI %, RTV, T/C %); format: in vivo, Balb/c Nude mice; details: for T/C % (relative tumor proliferation rate): dosage 400 mg/kg (G10-G16 study);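 for T/C % (relative tumor proliferation rate): control C is the vehicle-treated model control group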
Summary of the method: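 Nude mice inoculated with HCT-116 cells (about 3×10^7 cells/mL in serum-free medium). Tumor diameter measured three times weekly and volume computed as V=3/4π(D/2)^3. Activity expressed as TGI (%) and T/C (%) from relative tumor volume Vt/V0, with V0 taken at grouping and dosing start; P<0.05 significant.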

[3] = Day 0, G10-G16 groups, single IP 400 mg/kg
[4] = Day 0, G10-G16 groups, single IP 400 mg/kg, Mean±SEM
[5] = Day 1, G10-G16 groups, single IP 400 mg/kg, Mean±SEM
[6] = Day 2, G10-G16 groups, single IP 400 mg/kg, Mean±SEM
[7] = Day 4, G10-G16 groups, single IP 400 mg/kg, Mean±SEM
[8] = Day 7, G10-G16 groups, single IP 400 mg/kg, Mean±SEM
[9] = Day 9, G10-G16 groups, single IP 400 mg/kg, Mean±SEM
[10] = Day 11, G10-G16 groups, single IP 400 mg/kg, Mean±SEM
[11] = Day 14, G10-G16 groups, single IP 400 mg/kg, Mean±SEM
[12] = Day 16, G10-G16 groups, single IP 400 mg/kg, Mean±SEM
[13] = Day 18, G10-G16 groups, single IP 400 mg/kg, Mean±SEM
[14] = Day 21, G10-G16 groups, single IP 400 mg/kg, Mean±SEM
[15] = Day 23, G10-G16 groups, single IP 400 mg/kg, Mean±SEM
[16] = Day 25, G10-G16 groups, single IP 400 mg/kg, Mean±SEM
[17] = Day 28, G10-G16 groups, single IP 400 mg/kg, Mean±SEM
[18] = Day 30, G10-G16 groups, single IP 400 mg/kg, Mean±SEM

## O=C(COc1nc(Cl)c(Cl)cc1Cl)OC[C@H]1O[C@@H](n2cc(Br)c(NC(=O)OCc3ccccc3)nc2=O)C(F)(F)C1O (stereo partly shown) [Compound G10]
[1]; [3]
  Weight change rate, Day 0: 0.00%
[1]; [4]
  Weight of mice, Day 0: 19.90 ± 0.17 g
[1]; [5]
  Weight change rate, Day 1: −1.76 ± 0.49%
  Weight of mice, Day 1: 19.55 ± 0.21 g
[1]; [6]
  Weight change rate, Day 2: −0.85 ± 0.43%
  Weight of mice, Day 2: 19.73 ± 0.25 g
[1]; [7]
  Weight change rate, Day 4: 1.94 ± 0.91 %
  Weight of mice, Day 4: 20.28 ± 0.19 g
[1]; [8]
  Weight change rate, Day 7: 0.61 ± 0.70 %
  Weight of mice, Day 7: 20.02 ± 0.09 g
[1]; [9]
  Weight change rate, Day 9: 3.04 ± 1.24 %
  Weight of mice, Day 9: 20.50 ± 0.24 g
[1]; [10]
  Weight change rate, Day 11: 2.77 ± 1.51%
  Weight of mice, Day 11: 20.45 ± 0.32 g
[1]; [11]
  Weight change rate, Day 14: −1.53 ± 2.52%
  Weight of mice, Day 14: 19.60 ± 0.57 g
[1]; [12]
  Weight change rate, Day 16: −2.19 ± 3.22%
  Weight of mice, Day 16: 19.47 ± 0.68 g
[1]; [13]
  Weight change rate, Day 18: −1.80 ± 3.13%
  Weight of mice, Day 18: 19.55 ± 0.70 g
[1]; [14]
  Weight change rate, Day 21: −2.23 ± 3.14%
  Weight of mice, Day 21: 19.47 ± 0.72 g
[1]; Day 22, single IP dose (mg/kg)
  Day 22 Mortality: 0%
[1]; [15]
  Weight change rate, Day 23: −2.41 ± 3.42%
  Weight of mice, Day 23: 19.43 ± 0.78 g
[1]; [16]
  Weight change rate, Day 25: −1.80 ± 3.06%
  Weight of mice, Day 25: 19.55 ± 0.69 g
[1]; [17]
  Weight change rate, Day 28: −1.77 ± 2.66%
  Weight of mice, Day 28: 19.54 ± 0.67 g
[1]; [18]
  Weight change rate, Day 30: −1.95 ± 3.04%
  Weight of mice, Day 30: 19.55 ± 0.79 g
[1]; after single IP dose, compared with model control group
  clinical symptoms: no significant differences in clinical symptoms
[2]; [3]
  Day 0 (RTV): 1.00
[2]; [4]
  Tumor volume, Day 0: 83.23 ± 12.39 mm^3
[2]; Day 0
  T/C % (relative tumor proliferation rate): 0.00%
[2]; Day 1, G10-G16 groups, single IP 400 mg/kg
  Day 1 (TGI %): 50.51%
[2]; [5]
  Day 1 (RTV): 1.06 ± 0.12
  Tumor volume, Day 1: 89.33 ± 14.35** mm^3
[2]; Day 1
  T/C % (relative tumor proliferation rate): 63.00%
[2]; Day 2, G10-G16 groups, single IP 400 mg/kg
  Day 2 (TGI %): 51.72%
[2]; [6]
  Day 2 (RTV): 1.27 ± 0.16
  Tumor volume, Day 2: 108.22 ± 18.22** mm^3
[2]; Day 2
  T/C % (relative tumor proliferation rate): 61.29%
[2]; Day 4, G10-G16 groups, single IP 400 mg/kg
  Day 4 (TGI %): 48.03%
[2]; [7]
  Day 4 (RTV): 1.83 ± 0.20
  Tumor volume, Day 4: 154.33 ± 27.49** mm^3
[2]; Day 4
  T/C % (relative tumor proliferation rate): 66.28%
[2]; Day 7, G10-G16 groups, single IP 400 mg/kg
  Day 7 (TGI %): 46.09%
[2]; [8]
  Day 7 (RTV): 2.82 ± 0.25
  Tumor volume, Day 7: 233.13 ± 37.06** mm^3
[2]; Day 7
  T/C % (relative tumor proliferation rate): 69.09%
[2]; Day 9, G10-G16 groups, single IP 400 mg/kg
  Day 9 (TGI %): 33.35%
[2]; [9]
  Day 9 (RTV): 4.84 ± 0.55
  Tumor volume, Day 9: 393.47 ± 68.53 mm^3
[2]; Day 9
  T/C % (relative tumor proliferation rate): 86.30%
[2]; Day 11, G10-G16 groups, single IP 400 mg/kg
  Day 11 (TGI %): 38.55%
[2]; [10]
  Day 11 (RTV): 7.60 ± 0.85
  Tumor volume, Day 11: 599.83 ± 84* mm^3
[2]; Day 11
  T/C % (relative tumor proliferation rate): 82.36%
[2]; Day 14, G10-G16 groups, single IP 400 mg/kg
  Day 14 (TGI %): 30.82%
[2]; [11]
  Day 14 (RTV): 13.37 ± 2.23
  Tumor volume, Day 14: 996.32 ± 91.77* mm^3
[2]; Day 14
  T/C % (relative tumor proliferation rate): 96.62%
[2]; Day 16, G10-G16 groups, single IP 400 mg/kg
  Day 16 (TGI %): 24.07%
[2]; [12]
  Day 16 (RTV): 18.63 ± 3.27
  Tumor volume, Day 16: 1375.20 ± 109.23* mm^3
[2]; Day 16
  T/C % (relative tumor proliferation rate): 107.93%
[2]; Day 18, G10-G16 groups, single IP 400 mg/kg
  Day 18 (TGI %): 18.11%
[2]; [13]
  Day 18 (RTV): 22.45 ± 4.24
  Tumor volume, Day 18: 1636.39 ± 114.98 mm^3
[2]; Day 18
  T/C % (relative tumor proliferation rate): 117.59%
[2]; Day 21, G10-G16 groups, single IP 400 mg/kg
  Day 21 (TGI %): 14.51%
[2]; [14]
  Day 21 (RTV): 29.09 ± 6.00
  Tumor volume, Day 21: 2090.18 ± 124.45 mm^3
[2]; Day 21
  T/C % (relative tumor proliferation rate): 124.28%
[2]; Day 23, G10-G16 groups, single IP 400 mg/kg
  Day 23 (TGI %): 10.21%
[2]; [15]
  Day 23 (RTV): 29.56 ± 5.99
  Tumor volume, Day 23: 2120.63 ± 111.71 mm^3
[2]; Day 23
  T/C % (relative tumor proliferation rate): 149.49%
[2]; Day 25, G10-G16 groups, single IP 400 mg/kg
  Day 25 (TGI %): 11.18%
[2]; [16]
  Day 25 (RTV): 31.95 ± 6.61
  Tumor volume, Day 25: 2293.73 ± 132.31 mm^3
[2]; Day 25
  T/C % (relative tumor proliferation rate): 147.80%
[2]; Day 28, G10-G16 groups, single IP 400 mg/kg
  Day 28 (TGI %): 10.61%
[2]; [17]
  Day 28 (RTV): 35.86 ± 7.35
  Tumor volume, Day 28: 2404.00 ± 127.93 mm^3
[2]; Day 28
  T/C % (relative tumor proliferation rate): 169.72%
[2]; Day 30, G10-G16 groups, single IP 400 mg/kg
  Day 30 (TGI %): 10.17%
[2]; [18]
  Day 30 (RTV): 40.27 ± 10.35
  Tumor volume, Day 30: 2520.69 ± 108.41 mm^3
[2]; Day 30
  T/C % (relative tumor proliferation rate): 162.31%

Reference: patent publication US10174067B2, “Type of cytidine derivative and application thereof” (priority 2014, dated 2019)
